{"source": "a melting point compilation (Tetko et al.; mined from patent text by program, amines drawn as free bases though some values may be those of a salt)"}
{"units": {"melting point": "°C"}}
{"smiles": "COc1cc(CO)ccc1C12CC3CC(CC(C3)C1)C2", "melting point": "120 to 121"}
{"smiles": "Cn1ccnc1S(=O)(=O)c1ccc(Cl)cc1", "melting point": "164 to 166"}
{"smiles": "CCOc1cc2oc(=O)c3c(c2cc1OCC)CCN(CCN1CCCCC1)C3", "melting point": "144 to 146"}
{"smiles": "CC(C)CCCC(C)C1CC=C2C3=C(CCC21C)C1(C)CCC(O)CC1CC3", "note": "(configuration not stated)", "melting point": "113 to 114"}
{"smiles": "O=C(O)C1=Cc2cc(Oc3ccc(C(F)(F)F)cc3)cc(Cl)c2OC1C(F)(F)F", "note": "(configuration not stated)", "melting point": "224 to 226"}
{"smiles": "CCC(=O)c1c(-c2ccncc2)[nH]c(-c2ccncc2)c1C", "melting point": "237 to 238"}
{"smiles": "C=CCSc1ccc(Oc2ccccc2C)nn1", "melting point": "78 to 80"}
{"smiles": "C[C@@H](N(C(=O)CN)C(=O)c1ccc(C(F)(F)F)cc1)[C@](O)(Cn1cncn1)c1ccc(F)cc1F", "note": "(relative stereo)", "melting point": "147 to 148"}
{"smiles": "COc1cc(OC)c(-c2cccs2)cc1/C=C/C(=O)c1ccc(S(=O)(=O)Nc2ccc(F)cn2)cc1", "melting point": "194 to 195"}
{"smiles": "C=C(C)Cc1cc(C=O)cc(OCC)c1O", "melting point": "85 to 86"}
{"smiles": "CC(C)(C)c1ccc(OCC(O)CCCl)cc1", "note": "(configuration not stated)", "melting point": "45 to 47"}
{"smiles": "O=C(Nc1ccc2c(c1)nc1n2CCC1)c1cc2cccnc2n1Cc1ccccc1", "melting point": "251 to 252"}
{"smiles": "CCOCc1nc2c(N)nc3ccccc3c2n1CCOCCNC(=O)Nc1ccccc1", "melting point": "183 to 186"}
{"smiles": "CCCCCCCCCCCCn1nnc(CC(=O)Nc2c(C(C)C)cccc2C(C)C)n1", "melting point": "75 to 79"}
{"smiles": "Cn1nc(-c2cc(C(=O)O)c(Cl)cc2F)c(C=O)c1C(F)(F)F", "melting point": 163}
{"smiles": "CCCCCCCCCCCCCCCCO[C@@H]1CCCO[C@H]1CO", "note": "(relative stereo)", "melting point": "41 to 42"}
{"smiles": "CC(C)(C(=O)O)C(=O)NCCc1cn(C(c2ccccc2)(c2ccccc2)c2ccccc2)cn1", "melting point": "161 to 162"}
{"smiles": "Cc1cccc2sc(COc3ccc(F)c(C(N)=O)c3F)nc12", "melting point": "201 to 202"}
{"smiles": "CCCCOc1ccc(-n2cc(C(=O)OCC)cn2)cc1C#N", "melting point": 132}
{"smiles": "COc1cc2ncc(C#N)c(Nc3ccc(C)c(Cl)c3)c2cc1OC", "melting point": "> 250"}
{"smiles": "CNC(=O)c1cccc(Cl)c1Nc1nc(Nc2ccc3c(c2)CCC(N2CCC(N4CCN(C)CC4)CC2)CC3)ncc1Cl", "note": "(configuration not stated)", "melting point": "171 to 175"}
{"smiles": "CCc1cc([N+](=O)[O-])c(Cl)c([N+](=O)[O-])c1COC", "melting point": "81 to 82"}
{"smiles": "O=C1NC(=O)C(c2ccc(Br)o2)O1", "note": "(configuration not stated)", "melting point": "126 to 129"}
{"smiles": "CC(C)n1nc(CO)cc1OCc1ccc2ccccc2n1", "melting point": "118 to 119"}
{"smiles": "COc1ccc(N2CCN(Cc3c[nH]c4ncccc34)CC2)cc1", "melting point": "213 to 214"}
{"smiles": "COc1cc(-c2ncsc2-c2ccc(C(F)(F)F)cc2)cc(OC)c1OC", "melting point": "110 to 113"}
{"smiles": "COc1cc2ncc(OC3CCC(OC)CC3)nc2cc1OC", "note": "(configuration not stated)", "melting point": "85 to 90"}
{"smiles": "CC(C)(CO)CCNC(=O)OC(C)(C)C", "melting point": "75.5 to 76.5"}
{"smiles": "Cc1nc2cc(NCC(=O)C(C)(C)C)ccc2s1", "melting point": "108 to 111"}
{"smiles": "CC(C)S(=O)(=O)NC[C@@H](C)c1ccc(-c2ccc3c(c2)CC(=O)N3)cc1", "melting point": "170 to 171"}
{"smiles": "Oc1ccc2c(c1)CCCC2n1cc[nH]c1=S", "note": "(configuration not stated)", "melting point": "213 to 215"}
{"smiles": "O=C1NC(=O)c2c1cc1ccc3c(c1c2-c1ccc(OCc2ccccc2)cc1)OCO3", "melting point": "265 to 267"}
{"smiles": "CC(CN1CCC(c2noc3cc(F)ccc23)CC1)N1Cc2ccccc2C1", "note": "(configuration not stated)", "melting point": "164 to 165"}
{"smiles": "CC#Cc1ccc(-c2ccc(-c3ccc(CCCCC)cc3)c(F)c2F)cc1", "melting point": 103}
{"smiles": "COc1ccc2c(c1)C(CC(=O)O)CCO2", "note": "(configuration not stated)", "melting point": "80 to 83"}
{"smiles": "CCCc1cn(C(C)(C)C(=O)N(C)C)nc1-c1ccccc1Cl", "melting point": "64 to 66"}
{"smiles": "c1cnn(Cc2ccc3c(c2)Cc2c(-c4ccsc4)n[nH]c2-3)n1", "melting point": "238 to 241"}
{"smiles": "N#Cc1ccc(-c2cc(-c3ccc(O)c(F)c3)nc3ccc(O)cc23)cc1", "melting point": "266 to 267"}
{"smiles": "O=C1C2CCCN2S(=O)(=O)N1CCl", "note": "(configuration not stated)", "melting point": "46.5 to 47.5"}
{"smiles": "O=C1N(CC2CCCO2)c2cc3c(cc2C12COc1cc4c(cc12)CCO4)OCCO3", "note": "(configuration not stated)", "melting point": "220 to 225"}
{"smiles": "Cc1ccccc1C(N)=CC#N", "melting point": "111 to 113"}
{"smiles": "CC(C)CCN1C(=O)C(NC(=O)Nc2ccccc2)C(=O)N(CCN(C)C)c2ccccc21", "note": "(configuration not stated)", "melting point": "159 to 161"}
{"smiles": "CC(c1ccccc1OCCCC(=O)O)N(c1cc(F)ccc1F)S(=O)(=O)c1ccc(Cl)cc1", "note": "(configuration not stated)", "melting point": "141 to 142"}
{"smiles": "C=CCOC(=O)Nc1sc(-c2cccc(Cl)c2)cc1C(=O)OC", "melting point": "149 to 150"}
{"smiles": "CCOCCOc1ccc(-c2ccc3c(c2)C=C(C(=O)Nc2ccc(CN(C)C4CCOCC4)cc2)CCS3(=O)=O)cc1C", "melting point": "212 to 213"}
{"smiles": "Nc1c(Cl)cc(Nc2ncnc3cnc(N[C@H]4CC[C@H](C(=O)O)CC4)nc23)cc1Cl", "melting point": 339}
{"smiles": "COC(=O)C(CCSC)NC(=O)c1ccc([N+](=O)[O-])cc1-c1ccccc1", "note": "(configuration not stated)", "melting point": "98 to 101"}
{"smiles": "C/C(=N\\OCCN1CCOCC1)[C@H]1CC[C@H]2[C@@H]3CC=C4C[C@@H](O)CC[C@]4(C)[C@H]3CC[C@]12C", "melting point": "137 to 138"}
{"smiles": "O=C(O)COCC(=O)N1CCC(C(c2ccccc2)c2ccccc2)CC1", "melting point": "140 to 141"}
{"smiles": "CNc1cccc(C(=O)O)c1C", "melting point": "165 to 167"}
{"smiles": "CCOC1(C(N)=O)c2ccccc2S(=O)(=O)N1Cc1ccc(Br)cc1F", "note": "(configuration not stated)", "melting point": "175 to 177"}
{"smiles": "Cc1ccccc1-c1c(NC(=O)Nc2ccc(F)cc2F)cnc2sc(Cl)cc12", "melting point": "225 to 226"}
{"smiles": "COc1cc2c(c(-c3cc(F)ccc3F)c1)OC(CN)C2", "note": "(configuration not stated)", "melting point": "118 to 120"}
{"smiles": "N#CC12CCCC(C1)C1CCC2C1", "note": "(configuration not stated)", "melting point": "109 to 110"}
{"smiles": "CC(=O)CC(=O)Nc1ccc(Nc2ccccc2)cc1", "melting point": 89.5}
{"smiles": "CCCCCCCCCCC1C(=O)NC(=O)NC1=O", "melting point": 190}
{"smiles": "COc1ccc(CC2CCC3=C(CCC(=O)N3)C2)cc1", "note": "(configuration not stated)", "melting point": "176 to 177"}
{"smiles": "CC(=O)c1ccc(OCc2ccccc2)c2ncccc12", "melting point": "131 to 133"}
{"smiles": "COc1ccc(-c2cnc(N3Cc4c([nH]c5ccccc5c4=O)C3C3Cc4ccccc4O3)nc2)cc1", "note": "(configuration not stated)", "melting point": "301 to 302"}
{"smiles": "Cc1cnc(-c2cc(F)ccc2CNC(=O)c2nc3n(c(=O)c2OCc2ccccc2)CCOC3(C)C)o1", "melting point": 186}
{"smiles": "CCOc1ccc([N+](=O)[O-])c(C=C2NC(=O)NC2=O)c1", "melting point": "243 to 245"}
{"smiles": "Cc1nc(N=Nc2ccccc2)c(O)c(=O)[nH]1", "melting point": "243 to 245"}
{"smiles": "O=c1[nH]c2c(c3nc(-c4ccccc4Cl)nn13)CN(Cc1ccccc1)CC2", "melting point": "295 to 296"}
{"smiles": "Cc1cn(-c2ncccn2)cc1C(=O)NC(=N)N", "melting point": 208}
{"smiles": "CCOC(=O)c1nccn1Cc1ccccc1[N+](=O)[O-]", "melting point": "107 to 111"}
{"smiles": "COc1ccc(CCc2ccccc2C2(OC)C=CC(C(N)=O)=C(O)C2)cc1OC", "note": "(configuration not stated)", "melting point": "146 to 148"}
{"smiles": "CCCC(=O)Oc1ccc(C)cc1[C@H](CCN(C(C)C)C(C)C)c1ccccc1", "melting point": "116 to 119"}
{"smiles": "CNCc1cc(OC)c(-c2ccc(C[C@H](NC(=O)c3c(Cl)cccc3Cl)C(=O)O)cc2)c(OC)c1", "melting point": 274}
{"smiles": "COc1cc(NC(=O)Nc2c(-c3ccccc3C)c3cc4c(cc3oc2=O)CCC4)cc(OC)c1O", "melting point": "176 to 179"}
{"smiles": "COc1ccc(N2CCOCC2)c2sc(-c3ncc[nH]3)nc12", "melting point": "228 to 230"}
{"smiles": "C[C@H](c1ccccc1)n1c(=O)[nH]c2cc(Cl)cc(Cl)c2c1=O", "melting point": "205 to 210"}
{"smiles": "COC(=O)/C(=C/c1ccc2[nH]ccc2c1)N=[N+]=[N-]", "melting point": "130 to 133"}
